The values that follow come from patent US8742110B2, “Spiroxazolidinone compounds” (Merck Sharp & Dohme Corp., priority 2010, dated 2014).

The IC50 is the concentration that inhibits the measured activity by half. A high value points to a need for much substance.

This experiment addresses SSTR5 (Homo sapiens (Human), UniProt P35346). The experiment in a line: SSTR5 binding assay. Particulars: CHO-K1 membranes expressing cloned human SSTR5. The protocol:
The receptor-ligand binding assays of all 5 subtype of SSTRs were performed with membranes isolated from Chinese hamster ovary (CHO)-K1 cells stably expressing the cloned human somatostatin receptors in 96-well format as previous reported.
The stable cell lines for SSTR1-SSTR5 were developed by stably transfecting with DNA for all five SSTRs using Lipofectamine. […] The assay buffer consisted of 50 mM TrisHCl (pH 7.8) with 1 mM EGTA, […] MgCl2, leupeptin (10 μg/mL), pepstatin (10 μg/mL), bacitracin (200 μg/mL), and aprotinin (0.5 μg/mL). CHO-K1 cell membranes, radiolabeled somatostatin, and unlabeled test compounds were resuspended or diluted in this assay buffer. Unlabeled test compounds were examined over a range of concentrations from 0.01 nM to 10,000 nM.
Compounds exemplified were tested in the SSTR5 binding assay.

Structures can show the parent of a compound that is named as a salt.

SSTR5, sequence (P35346 whole entry): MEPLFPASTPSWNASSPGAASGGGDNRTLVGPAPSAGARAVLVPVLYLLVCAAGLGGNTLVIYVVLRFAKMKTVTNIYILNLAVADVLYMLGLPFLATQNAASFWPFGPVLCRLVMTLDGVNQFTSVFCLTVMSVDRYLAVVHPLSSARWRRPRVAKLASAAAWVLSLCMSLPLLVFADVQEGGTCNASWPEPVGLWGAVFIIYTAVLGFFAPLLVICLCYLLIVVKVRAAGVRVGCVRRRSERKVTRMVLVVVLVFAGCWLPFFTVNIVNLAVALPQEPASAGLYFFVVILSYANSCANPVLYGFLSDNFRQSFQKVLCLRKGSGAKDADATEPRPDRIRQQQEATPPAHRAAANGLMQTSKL

On to `O=C(O)c1ccc(N2CC3(CCN(Cc4cnn(-c5ccccc5)c4-c4cc(F)c(F)cc4F)CC3)OC2=O)cc1` [Example 2-7, 4-(2-Oxo-8-{[1-phenyl-5-(2,4,5-trifluorophenyl)-1H-pyrazol-4-yl]methyl}-1-oxa-3,8-diazaspiro[4.5]dec-3-yl)benzoic acid, TFA salt], for which the IC50 was determined as 1.83 nM.

The compound `O=C(O)c1ccc(N2CC3(CCN(Cc4cnn(C5CCCCC5)c4-c4cc(F)c(F)cc4F)CC3)OC2=O)cc1` [Example 2-8, 4-(8-{[1-Cyclohexyl-5-(2,4,5-trifluorophenyl)-1H-pyrazol-4-yl]methyl}-2-oxo-1-oxa-3,8-diazaspiro[4.5]dec-3-yl)benzoic acid, TFA salt] displayed a 50% inhibitory concentration (IC50) of 10.4 nM.

As for `CC(C)(C)n1cc(CN2CC3(C2)CN(c2ccc(C(=O)O)cc2)C(=O)O3)c(-c2ccc(F)c(F)c2F)n1` [Example 2-9, 4-(2-{[1-tert-Butyl-3-(2,3,4-trifluorophenyl)-1H-pyrazol-4-yl]methyl}-6-oxo-5-oxa-2,7-diazaspiro[3.4]oct-7-yl)benzoic acid, TFA salt], the 50% inhibitory concentration (IC50) was found to be 14.9 nM. In the case of `CC(C)(C)n1cc(CN2CCCC3(CC2)CN(c2ccc(C(=O)O)cc2)C(=O)O3)c(-c2ccc(F)c(F)c2F)n1` (centres unmarked) [Example 2-11, 4-(8-{[1-tert-Butyl-3-(2,3,4-trifluorophenyl)-1H-pyrazol-4-yl]methyl}-2-oxo-1-oxa-3,8-diazaspiro[4.6]undec-3-yl)benzoic acid, TFA salt], the IC50 came to 207 nM. Under `CCOc1cc(CN2CCCC3(CC2)CN(c2ccc(C(=O)O)cc2)C(=O)O3)cc(OCC)c1-c1ccc(F)cc1` (centres unmarked) [Example 2-12, 4-{8-[(2,6-Diethoxy-4′-fluorobiphenyl-4-yl)methyl]-2-oxo-1-oxa-3,8-diazaspiro[4.6]undec-3-yl}benzoic acid, TFA salt] stands 4.93 nM. `CCOc1ccc(-c2ccc(F)c(F)c2)c(CN2CCCC3(CC2)CN(c2ccc(C(=O)O)cc2)C(=O)O3)c1` (centres unmarked) [Example 2-13, 4-{8-[(4-Ethoxy-3′,4′-difluorobiphenyl-2-yl)methyl]-2-oxo-1-oxa-3,8-diazaspiro[4.6]undec-3-yl}benzoic acid, TFA salt] registered an IC50 of 26.1 nM. In turn, `COc1ccc(-c2nn(C(C)(C)C)cc2CN2CCCC3(CC2)CN(c2ccc(C(=O)O)cc2)C(=O)O3)cc1` (centres unmarked) [Example 2-14, 4-(8-{[1-tert-Butyl-3-(4-methoxyphenyl)-1H-pyrazol-4-yl]methyl}-2-oxo-1-oxa-3,8-diazaspiro[4.6]undec-3-yl)benzoic acid, TFA salt] displayed an IC50 of 26.8 nM.

In turn, `COc1ccc(-c2nn(-c3ccccc3)cc2CN2CCCC3(CC2)CN(c2ccc(C(=O)O)cc2)C(=O)O3)cc1` (centres unmarked) [Example 2-15, 4-(8-{[3-(4-Methoxyphenyl)-1-phenyl-1H-pyrazol-4-yl]methyl}-2-oxo-1-oxa-3,8-diazaspiro[4.6]undec-3-yl)benzoic acid, TFA salt] returned an IC50 of 58.7 nM.

The compound `CCOc1cc(CN2CCC3(C2)CN(c2ccc(C(=O)O)cc2)C(=O)O3)cc(OCC)c1-c1ccc(F)cc1` (centres unmarked) [Example 2-16, 4-{7-[(2,6-Diethoxy-4′-fluorobiphenyl-4-yl)methyl]-2-oxo-1-oxa-3,7-diazaspiro[4.4]non-3-yl}benzoic acid, TFA salt] came in with a concentration for half-maximal inhibition (IC50) of 5.63 nM. Under `CC(C)(C)n1cc(CN2CCC3(C2)CN(c2ccc(C(=O)O)cc2)C(=O)O3)c(-c2ccc(F)c(F)c2F)n1` (centres unmarked) [Example 2-17, 4-(7-{[1-tert-Butyl-3-(2,3,4-trifluorophenyl)-1H-pyrazol-4-yl]methyl}-2-oxo-1-oxa-3,7-diazaspiro[4.4]non-3-yl)benzoic acid, TFA salt] stands 32.7 nM. Next, `CCOc1cc(CN2CCC3(CC2)CN(c2cncc(O)c2)C(=O)O3)cc(OCC)c1-c1ccc(F)cc1` [Example 3-2, 8-[(2,6-Diethoxy-4′-fluorobiphenyl-4-yl)methyl]-3-(5-hydroxypyridin-3-yl)-1-oxa-3,8-diazaspiro[4.5]decan-2-one, TFA salt]: 1.46 nM.
